Measured values published in patent US20250230193A1, “CYCLIC COMPOUND HAVING SELECTIVE KRAS INHIBITORY EFFECT ON HRAS AND NRAS” (CHUGAI SEIYAKU KABUSHIKI KAISHA, priority 2022, published 2025).

Legend:
[1] = biological target: GDP-bound NRAS wild-type protein (Homo sapiens, UniProt P01111); assay: Binding to NRAS by surface plasmon resonance (SPR), Single Cycle Kinetics; details: KD ratio NRAS/KRAS, class symbols
[2] = biological target: GDP-bound HRAS wild-type protein (Homo sapiens, UniProt P01112); assay: Binding to HRAS by surface plasmon resonance (SPR), Single Cycle Kinetics; details: KD ratio HRAS/KRAS, class symbols
Sequence of GDP-bound HRAS wild-type protein (P01112 whole entry): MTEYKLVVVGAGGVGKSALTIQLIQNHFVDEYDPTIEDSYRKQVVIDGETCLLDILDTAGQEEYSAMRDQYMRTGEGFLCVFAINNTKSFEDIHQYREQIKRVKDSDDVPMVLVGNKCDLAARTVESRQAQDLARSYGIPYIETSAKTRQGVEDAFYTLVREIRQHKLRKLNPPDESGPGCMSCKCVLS

Sequence of GDP-bound NRAS wild-type protein (P01111 whole entry): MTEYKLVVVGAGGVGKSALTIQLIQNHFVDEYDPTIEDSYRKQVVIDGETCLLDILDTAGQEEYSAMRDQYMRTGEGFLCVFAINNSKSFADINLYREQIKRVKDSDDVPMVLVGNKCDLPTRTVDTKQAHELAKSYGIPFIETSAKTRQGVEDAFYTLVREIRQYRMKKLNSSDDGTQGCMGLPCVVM

Row | Compound | NRAS/KRAS (ratio of KD value with respect to GDP-bound NRAS wild-type protein to KD value with respect to KRAS) [1] | HRAS/KRAS (ratio of KD value with respect to GDP-bound HRAS wild-type protein to KD value with respect to KRAS) [2]
1 | CCC[C@H]1C(=O)N[C@@H]([C@@H](C)CC)C(=O)N(C)CC(=O)N(C)[C@H]2C/C=C\CCN(C2=O)[C@@H](Cc2ccc(C)cc2)C(=O)N(C)CC(=O)N[C@@H](CCc2ccc3sc(F)c(C)c3c2)C(=O)N2C[C@H](OCC)C[C@H]2C(=O)NC2(CC(C)(C)C2)C(=O)N(C)[C@@H](C2CCCC2)C(=O)N(C)[C@H](C(=O)N(C)C)CC(=O)N1C [PP2949] | A (a compound having 10 or more and less than 20 is denoted as A) | A (a compound having 10 or more and less than 20 is denoted as A)
2 | CCC[C@H]1C(=O)N[C@@H]([C@@H](C)CC)C(=O)N(C)CC(=O)N(C)[C@H]2C/C=C\CCN(C2=O)[C@@H](Cc2ccc(C(F)(F)F)cc2)C(=O)N(C)CC(=O)N[C@@H](CCc2cc(Cl)c3c(ccn3C)c2)C(=O)N2C[C@H](OCC)C[C@H]2C(=O)NC2(CC(C)(C)C2)C(=O)N(C)[C@@H](C2CCCC2)C(=O)N(C)[C@H](C(=O)N(C)C)CC(=O)N1C [PP2950] | A (a compound having 10 or more and less than 20 is denoted as A) | A (a compound having 10 or more and less than 20 is denoted as A)
3 | CCC[C@H]1C(=O)N[C@@H]([C@@H](C)CC)C(=O)N(C)CC(=O)N(C)[C@H]2C/C=C\CCN(C2=O)[C@@H](Cc2ccc(C)cc2)C(=O)N(C)CC(=O)N[C@@H](CCc2cc(Cl)c3c(ccn3C)c2)C(=O)N2C[C@H](OCC)C[C@H]2C(=O)NC2(CC(C)(C)C2)C(=O)N(C)[C@@H](C2CCCC2)C(=O)N(C)[C@H](C(=O)N(C)C)CC(=O)N1C [PP2951] | A (a compound having 10 or more and less than 20 is denoted as A) | A (a compound having 10 or more and less than 20 is denoted as A)
4 | CCO[C@@H]1C[C@H]2C(=O)NC3(CC(C)(C)C3)C(=O)N(C)[C@@H](C(CC)CC)C(=O)N(C)[C@H](C(=O)N3CCCCC3)CC(=O)N(C)[C@H]3CCC/C=C/c4ccc(cc4)C[C@@H](C(=O)N(C)CC(=O)N[C@@H](CCc4cc(F)c(C(F)(F)F)c(F)c4)C(=O)N2C1)N1CC/C=C\C[C@@H](C1=O)N(C)C(=O)CN(C)C(=O)[C@H]([C@@H](C)CC)NC3=O [PP2952] | AA (a compound having 20 or more is denoted as AA) | A (a compound having 10 or more and less than 20 is denoted as A)
5 | CCO[C@@H]1C[C@H]2C(=O)NC3(CC(C)(C)C3)C(=O)N(C)[C@@H](C(CC)CC)C(=O)N(C)[C@H](C(=O)N3CCCCC3)CC(=O)N(C)[C@H]3CCC/C=C/c4ccc(cc4)C[C@@H](C(=O)N(C)CC(=O)N[C@@H](CCc4ccc(Cl)c(Cl)c4)C(=O)N2C1)N1CC/C=C\C[C@@H](C1=O)N(C)C(=O)CN(C)C(=O)[C@H]([C@@H](C)CC)NC3=O [PP2953] | AA (a compound having 20 or more is denoted as AA) | A (a compound having 10 or more and less than 20 is denoted as A)
6 | CCO[C@@H]1C[C@H]2C(=O)NC3(CCC3)C(=O)N(C)[C@@H](C3CCCC3)C(=O)N(C)[C@H](C(=O)N3CCCCC3)CC(=O)N(C)[C@H]3CCC/C=C/c4ccc(cc4)C[C@@H](C(=O)N(C)CC(=O)N[C@@H](CCc4cc(F)c(C(F)(F)F)c(F)c4)C(=O)N2C1)N1CC/C=C\C[C@@H](C1=O)N(C)C(=O)CN(C1CC1)C(=O)[C@H]([C@@H](C)CC)NC3=O [PP2954] | A (a compound having 10 or more and less than 20 is denoted as A) | A (a compound having 10 or more and less than 20 is denoted as A)
7 | CCO[C@@H]1C[C@H]2C(=O)NC3(CC(C)(C)C3)C(=O)N(C)[C@@H](C(CC)CC)C(=O)N(C)[C@H](C(=O)N(C)C)CC(=O)N(C)[C@H]3CCC/C=C/c4ccc(cc4)C[C@@H](C(=O)N(C)CC(=O)N[C@@H](CCc4cc(F)c(C(F)(F)F)c(F)c4)C(=O)N2C1)N1CC/C=C\C[C@@H](C1=O)N(C)C(=O)CN(C1CC1)C(=O)[C@H]([C@@H](C)CC)NC3=O [PP2955] | A (a compound having 10 or more and less than 20 is denoted as A) | A (a compound having 10 or more and less than 20 is denoted as A)
8 | CCO[C@@H]1C[C@H]2C(=O)NC3(CCC3)C(=O)N(C)[C@@H](C(CC)CC)C(=O)N(C)[C@H](C(=O)N3CCCCC3)CC(=O)N(C)[C@H]3CCC/C=C/c4ccc(cc4)C[C@@H](C(=O)N(C)CC(=O)N[C@@H](CCc4cc(F)c(C(F)(F)F)c(F)c4)C(=O)N2C1)N1CC/C=C\C[C@@H](C1=O)N(C)C(=O)CN(C1CC1)C(=O)[C@H]([C@@H](C)CC)NC3=O [PP2956] | AA (a compound having 20 or more is denoted as AA) | A (a compound having 10 or more and less than 20 is denoted as A)
9 | CCO[C@@H]1C[C@H]2C(=O)NC3(CCC3)C(=O)N(C)[C@@H](C(CC)CC)C(=O)N(C)[C@H](C(=O)N3CCCC3)CC(=O)N(C)[C@H]3CCC/C=C/c4ccc(cc4)C[C@@H](C(=O)N(C)CC(=O)N[C@@H](CCc4cc(F)c(C(F)(F)F)c(F)c4)C(=O)N2C1)N1CC/C=C\C[C@@H](C1=O)N(C)C(=O)CN(C1CC1)C(=O)[C@H]([C@@H](C)CC)NC3=O [PP2957] | AA (a compound having 20 or more is denoted as AA) | A (a compound having 10 or more and less than 20 is denoted as A)
10 | CCO[C@@H]1C[C@H]2C(=O)NC3(CCC3)C(=O)N(C)[C@@H](C3CCCC3)C(=O)N(C)[C@H](C(=O)N3CCCCC3)CC(=O)N(C)[C@H]3CCC/C=C/c4ccc(cc4)C[C@@H](C(=O)N(C)CC(=O)N[C@@H](CCc4ccc(Cl)c(Cl)c4)C(=O)N2C1)N1CC/C=C\C[C@@H](C1=O)N(C)C(=O)CN(C1CC1)C(=O)[C@H]([C@@H](C)CC)NC3=O [PP2958] | AA (a compound having 20 or more is denoted as AA) | A (a compound having 10 or more and less than 20 is denoted as A)
11 | CCC(CC)[C@H]1C(=O)N(C)[C@H](C(=O)N(C)C)CC(=O)N(C)[C@@H](COC)C(=O)N[C@@H]([C@@H](C)CC)C(=O)N(C)CC(=O)N(C)[C@H]2C/C=C\CCN(C2=O)[C@@H](Cc2ccc(C)cc2)C(=O)N(C)CC(=O)N[C@@H](CCc2cc(F)c(C(F)(F)F)c(F)c2)C(=O)N2CCCCC[C@H]2C(=O)NC2(CC(C)(C)C2)C(=O)N1C [PP2960] | A (a compound having 10 or more and less than 20 is denoted as A) | A (a compound having 10 or more and less than 20 is denoted as A)
